The source of these data is ChEMBL document CHEMBL1158693, “Antiinsectan decaturin and oxalicine analogues from Penicillium thiersii” (2005).

Structures are written as SMILES.

Holding throughout (format): functional
Common to all, as to parameters: scale not given: the % may be the effect or the level left

Assay [1] relates to Spodoptera frugiperda. The assay can be described thus: Antiinsecticidal activity against Spodoptera frugiperda assessed as reduction in growth rate at 100 ppm relative to control.
Assay [2] concerns Spodoptera frugiperda. The assay can be described thus: Antiinsecticidal activity against Spodoptera frugiperda assessed as reduction in growth rate at 80 ppm relative to control.
Assay [3] relates to Spodoptera frugiperda. The assay can be described thus: Antiinsecticidal activity against Spodoptera frugiperda assessed as reduction in growth rate at 360 ppm relative to control.

In the case of `CC1=CC[C@@H]2[C@]34CC[C@](O)(OC3)C(C)(C)[C@@H]4CC[C@@]2(C)[C@@]12Oc1cc(-c3cccnc3)oc(=O)c1[C@@H]2O` [DECATURIN B], in the assay with Spodoptera frugiperda [1], the Activity amounted to 89%. Consider `CC1=CC[C@@H]2[C@]34CC[C@](O)(OC3)C(C)(C)[C@@H]4CC[C@@]2(C)[C@]12Cc1c(cc(-c3cccnc3)oc1=O)O2` [DECATURIN C], for which the Activity in the assay with Spodoptera frugiperda [2] was 28%. Take `CC1=CC[C@@H]2[C@@]3(C)CCC(=O)C(C)(C)[C@@H]3CC[C@@]2(C)[C@]12Cc1c(cc(-c3cccnc3)oc1=O)O2` [DECATURIN D]: the Activity in the assay with Spodoptera frugiperda [1] is 77%. In the case of `C=C(C)[C@@H]1CC[C@]2(C)[C@H](CC=C(C)[C@]23Oc2cc(-c4cccnc4)oc(=O)c2[C@@H]3O)[C@@]12CCC(=O)OC2` [OXALICINE A], the Activity in the assay on Spodoptera frugiperda [3] came out at 98%. As for `C=C(C)[C@]1(O)CC[C@]2(C)[C@H](CC=C(C)[C@]23Oc2cc(-c4cccnc4)oc(=O)c2[C@@H]3O)[C@@]12CCC(=O)OC2` [OXALICINE B], in the assay on Spodoptera frugiperda [1], the Activity was found to be 62%.
